Molecules are shown by their SMILES. Entries after “also recorded” stand apart in the source; their conditions may differ.

From patent US20130130306A1, “ZN (II) BASED COLORIMETRIC SENSOR AND PROCESS FOR THE PREPARATION THEREOF” (COUNCIL OF SCIENTIFIC & INDUSTRIAL RESEARCH, priority 2010, published 2013) come the findings set out here.

Data set [1] in a line: UV-vis spectral response and spectrophotometric titration with CTP. The format is binding. The method, then: In order to examine the binding behaviour of the Zn-complex (L.Zn) (Scheme 1, Formula 1A) to various important anions (like ATP, CTP, ADP, AMP, PPi, H2PO4^−, SO4^2−, CH3CO2^−, I^−, Br^−, Cl^− and F^−) the following experiment was conducted. A solution (˜21 mM) for of sodium salts of ATP, CTP, ADP, AMP, PPi, H2PO4^−, SO4^−, CH3CO2^−, I^−, Br^−, Cl^−, and F^− were prepared using respective salt in 10 mM HEPES buffer solutions (pH 7.2) and was stored for use. Further, a solution (44.35 μM) of the compound L.Zn (Scheme 1, Formula 1A) was prepared using doubly-distilled and deionized water and stored. These stored solutions were used on the day of preparation of the solution for experiment. […]
A solution of L.Zn (Scheme 1, Formula 1A) (8.87 μM) in aqueous medium was treated with excess amount of ˜500 μM of different phosphate anions like H2PO4^−, PPi, AMP, ADP, ATP and CTP. […] Thus L.Zn (Scheme 1, Formula 1A) can bind ATP selectively among various phosphate anions and the color change associated with the binding of ATP can be detected through naked eye (FIG. 2).
A 1.0 mL of stored solution L.Zn (Scheme 1, Formula 1A) ([L.Zn]=8.95 μM) was put in a test-tube, such that, the final concentration of the L.Zn solution was 1.79 μM to this varying amount of CTP (0.1-4 mL of the stored CTP solution (12.71 mM) was added. Resulting solution was then diluted by addition of a 10 mM HEPES buffer solution (N-(2-hydroxyethyl)-piperazine-N′-2-ethanesulfonic acid) (pH 7.2) maintaining total volume of the resultant aliquot of 5 mL, which was used for spectrophotometric measurements by putting a quartz spectrophotometric cell (3.5 mL capacity). The total spectral change was measured using a spectrophotometer (Shimadzu UV-3101 PC) after appropriate base line correction. […]

For data set [2], the system named is living microbes (eukaryotes and prokaryotes). Kind of data set: Toxicity and viability of cells after staining. The format is cell-based. The source says: We also explored the possibility of using L.Zn/L.Zn.α-CD as the staining agent for prokaryotes (Gram +ve and Gram −ve bacterial cells). […] As expected stained cells for Gram +ve bacteria appeared longer as compared to those of the stained Gram −ve bacteria. The difference in the staining intensity for two different bacteria with the L.Zn.α-CD (Scheme 2) could be much better understood after going into the depth of cell biology of each bacterial cells and the detailed biochemistry involved while staining; besides, difference in cell structure and cell wall composition of the respective bacteria. […] Changes on the cell surfaces on binding of the dye, L.Zn (Scheme 1, Formula 1A) were also evident from the SEM images recorded for Gram −ve and Gram +ve bacteria, in absence and presence of staining agent (FIGS. 11C to 11F). Difference in the contrasts in the SEM images of the sample surfaces also signifies the non-homogeneous chemical nature of the sample surface. Relatively brighter cell exterior for Gram −ve bacteria, as compared to the Gram +ve one indicates the accumulation of higher negative charge on the extra-cellular surface. […] The growth profile of Eukaryotic Yeast cells (Saccharomyces cerevisiae) and Prokaryotic bacterial cells ([…]) in an aqueous culture medium in absence and presence of L.Zn (Scheme 1, Formula 1A) are shown in FIG. 12. Change in absorbance (at λmax=600 nm) vs time (t) was plotted up to 30 h; as no appreciable change in growth was observed thereafter. […] FIGS. 12a, 12c and 12e show the actual growth curve of Saccharomyces cerevisiae, Pseudomonas fluorescence and Bacillus megaterium, respectively with time. While, FIGS. 12b, 12d and 12f show relative build up of ATP in cytoplasm with time for Saccharomyces cerevisiae, Pseudomonas fluorescence and Bacillus megaterium, respectively in presence of L.Zn (Scheme 1, Formula 1A) (D1) and L.Zn.α-CD (Scheme 2) (D2). […]

For `CN(C)c1ccc(N=Nc2ccc(S(=O)(=O)N3CCCNCCNCCCNCC3)cc2)cc1.O=[N+]([O-])[O-].O=[N+]([O-])[O-].[Zn+2]` [L.Zn], the “color change on addition of CTP (naked eye)” value in data set [1] (L.Zn 8.87 μM in aqueous medium, ~500 μM anion) is “Slight color change”. The “red shift of absorption on addition of CTP” value in data set [1] (pH 7.2, L.Zn 8.87 μM, anion 17 mM) was 9 nm. Besides, the “binding constant for the formation of the complex L.Zn-CTP” value in data set [1] (spectrophotometric titration, pH 7.2, 10 mM HEPES, 25° C.) is 220 (±+15) M^−1. For the same compound, the “growth of stained cells in their respective media” value in data set [2] (after staining) is given as “stained cells were found to grow in their respective media”. Besides, the “toxicity to living cells” value in data set [2] (eukaryotes and prokaryotes, cell proliferation and growth after staining) is listed as “non-toxic; also recorded: non toxic”. For the same compound, the “viability of stained cells, hanging drop in concavity slide” value in data set [2] (light microscope, until 3 h) is listed as “cell growth, cell division, as well as their motility could be observed”.
